# Experimental data taken from ChEMBL document CHEMBL3885861, “Open TG-GATES”.
# Species: Rattus norvegicus
# Test: Open TG-GATES - Regimen: Single
# Assay type: toxicity, organism-based, Sprague-Dawley
# Set-up: regimen Single, gender Male, age 6 weeks
# Details: in vivo, ip, 0 mg/kg, route intraperitoneal injection, dose level Control; for APTT / Bas / Eos / Fbg / Hb / Ht / Lym / MCH / MCHC / MCV / Mono / Neu / PT / Plat / RBC / Ret / WBC: tissue Blood; for KIDNEY_L / KIDNEY_R / KIDNEY_TOTAL: tissue Kidney; for LIVER: tissue Liver; for A/G / ALP / ALT / AST / BUN / CRE / Ca / Cl / DBIL / GLC / IP / K / LDH / Na / PL / RALB / TBIL / TC / TG / TP / gamma-GTP: tissue Plasma
smiles,measurement,setting,value
N[C@H]1C(O)O[C@H](CO)[C@@H](O)[C@@H]1O (some centres not stated) [GLUCOSAMINE],TERMINAL_BW,3 h,190.4 g
same,APTT,3 h,17.1 s
same,Bas,3 h,0.2%
same,Eos,3 h,0.6%
same,Fbg,3 h,273.4 mg/dL
same,Hb,3 h,12.6 g/dL
same,Ht,3 h,38.6%
same,Lym,3 h,73.6%
same,MCH,3 h,20.7 pg
same,MCHC,3 h,32.7%
same,MCV,3 h,63.4 fL
same,Mono,3 h,3.8%
same,Neu,3 h,20.2%
same,PT,3 h,15.5 s
same,Plat,3 h,111.6 x10_4/uL
same,RBC,3 h,609.4 x10_4/ul
same,Ret,3 h,9.4%
same,WBC,3 h,98.5 x10_2/uL
same,KIDNEY_L,3 h,0.9 g
same,KIDNEY_R,3 h,0.9 g
same,KIDNEY_TOTAL,3 h,1.7 g
same,LIVER,3 h,8.4 g
same,A/G,3 h,0.9
same,ALP,3 h,1386.8 IU/L
same,ALT,3 h,42.2 IU/L
same,AST,3 h,77 IU/L
same,BUN,3 h,9.6 mg/dL
same,CRE,3 h,0.2 mg/dL
same,Ca,3 h,10.5 mg/dL
same,Cl,3 h,106.4 meq/L
same,DBIL,3 h,0.01 mg/dL
same,GLC,3 h,175.4 mg/dL
same,IP,3 h,9.4 mg/dL
same,K,3 h,4.4 meq/L
same,LDH,3 h,61.2 IU/L
same,Na,3 h,142.2 meq/L
same,PL,3 h,141.6 mg/dL
same,RALB,3 h,2.4 g/dL
same,TBIL,3 h,0.052 mg/dL
same,TC,3 h,79.2 mg/dL
same,TG,3 h,47.8 mg/dL
same,TP,3 h,5.2 g/dL
same,gamma-GTP,3 h,0.8 IU/L
same,TERMINAL_BW,6 h,188.5 g
same,APTT,6 h,18.8 s
same,Bas,6 h,0.2%
same,Eos,6 h,0%
same,Fbg,6 h,298.6 mg/dL
same,Hb,6 h,12.9 g/dL
same,Ht,6 h,39.6%
same,Lym,6 h,62.6%
same,MCH,6 h,21.3 pg
same,MCHC,6 h,32.6%
same,MCV,6 h,65.5 fL
same,Mono,6 h,2%
same,Neu,6 h,34%
same,PT,6 h,15.8 s
same,Plat,6 h,113.1 x10_4/uL
same,RBC,6 h,604.2 x10_4/ul
same,Ret,6 h,9.4%
same,WBC,6 h,79.2 x10_2/uL
same,KIDNEY_L,6 h,0.8 g
same,KIDNEY_R,6 h,0.8 g
same,KIDNEY_TOTAL,6 h,1.6 g
same,LIVER,6 h,7.8 g
same,A/G,6 h,0.9
same,ALP,6 h,1323.4 IU/L
same,ALT,6 h,36.2 IU/L
same,AST,6 h,70.2 IU/L
same,BUN,6 h,8.2 mg/dL
same,CRE,6 h,0.2 mg/dL
same,Ca,6 h,10.3 mg/dL
same,Cl,6 h,106.8 meq/L
same,DBIL,6 h,0.008 mg/dL
same,GLC,6 h,178.6 mg/dL
same,IP,6 h,9.8 mg/dL
same,K,6 h,4 meq/L
same,LDH,6 h,51.8 IU/L
same,Na,6 h,142.4 meq/L
same,PL,6 h,144 mg/dL
same,RALB,6 h,2.5 g/dL
same,TBIL,6 h,0.052 mg/dL
same,TC,6 h,82.8 mg/dL
same,TG,6 h,41.4 mg/dL
same,TP,6 h,5.3 g/dL
same,gamma-GTP,6 h,1 IU/L
same,TERMINAL_BW,9 h,185.1 g
same,APTT,9 h,17 s
same,Bas,9 h,0.2%
same,Eos,9 h,0.8%
same,Fbg,9 h,298.8 mg/dL
same,Hb,9 h,13 g/dL
same,Ht,9 h,40.1%
same,Lym,9 h,66.6%
same,MCH,9 h,21.2 pg
same,MCHC,9 h,32.5%
same,MCV,9 h,65.3 fL
same,Mono,9 h,2.4%
same,Neu,9 h,29.6%
same,PT,9 h,15.7 s
same,Plat,9 h,109.5 x10_4/uL
same,RBC,9 h,615 x10_4/ul
same,Ret,9 h,9.4%
same,WBC,9 h,85.2 x10_2/uL
same,KIDNEY_L,9 h,0.8 g
same,KIDNEY_R,9 h,0.8 g
same,KIDNEY_TOTAL,9 h,1.6 g
same,LIVER,9 h,7.2 g
same,A/G,9 h,0.9
same,ALP,9 h,1439.4 IU/L
same,ALT,9 h,37.6 IU/L
same,AST,9 h,78 IU/L
same,BUN,9 h,7.6 mg/dL
same,CRE,9 h,0.2 mg/dL
same,Ca,9 h,10.4 mg/dL
same,Cl,9 h,107.4 meq/L
same,DBIL,9 h,0.014 mg/dL
same,GLC,9 h,157.4 mg/dL
same,IP,9 h,10.3 mg/dL
same,K,9 h,3.6 meq/L
same,LDH,9 h,51.6 IU/L
same,Na,9 h,143.2 meq/L
same,PL,9 h,131.4 mg/dL
same,RALB,9 h,2.5 g/dL
same,TBIL,9 h,0.078 mg/dL
same,TC,9 h,79.4 mg/dL
same,TG,9 h,18.4 mg/dL
same,TP,9 h,5.3 g/dL
same,gamma-GTP,9 h,0.6 IU/L
same,TERMINAL_BW,24 h,201.5 g
same,APTT,24 h,17.2 s
same,Bas,24 h,0.2%
same,Eos,24 h,1.4%
same,Fbg,24 h,293.6 mg/dL
same,Hb,24 h,12.9 g/dL
same,Ht,24 h,38.9%
same,Lym,24 h,77.2%
same,MCH,24 h,20.8 pg
same,MCHC,24 h,33.1%
same,MCV,24 h,62.6 fL
same,Mono,24 h,2.8%
same,Neu,24 h,17.2%
same,PT,24 h,16.2 s
same,Plat,24 h,117.8 x10_4/uL
same,RBC,24 h,622.4 x10_4/ul
same,Ret,24 h,8.9%
same,WBC,24 h,96.4 x10_2/uL
same,KIDNEY_L,24 h,0.9 g
same,KIDNEY_R,24 h,0.9 g
same,KIDNEY_TOTAL,24 h,1.8 g
same,LIVER,24 h,9 g
same,A/G,24 h,0.9
same,ALP,24 h,1430 IU/L
same,ALT,24 h,39.8 IU/L
same,AST,24 h,76.2 IU/L
same,BUN,24 h,13.6 mg/dL
same,CRE,24 h,0.2 mg/dL
same,Ca,24 h,10.4 mg/dL
same,Cl,24 h,105.8 meq/L
same,DBIL,24 h,0.012 mg/dL
same,GLC,24 h,185.2 mg/dL
same,IP,24 h,8.3 mg/dL
same,K,24 h,4.3 meq/L
same,LDH,24 h,108.2 IU/L
same,Na,24 h,142 meq/L
same,PL,24 h,151.6 mg/dL
same,RALB,24 h,2.5 g/dL
same,TBIL,24 h,0.04 mg/dL
same,TC,24 h,80.4 mg/dL
same,TG,24 h,69.8 mg/dL
same,TP,24 h,5.5 g/dL
same,gamma-GTP,24 h,0.4 IU/L
